The record followed here is US8680290B2, “Isoxazoline derivatives and their use as herbicides” (Syngenta Limited, priority 2004, dated 2014).

Series [1] has as its system Monocotyledonous and dicotyledonous test plants. In words: Example B1 herbicidal action, application pre-emergence (Table B1b). It counts as in vivo. The following applies: 250 g/ha, evaluated after 4 weeks. Summed up: (§1)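 Compounds sprayed as aqueous solution from acetone/Emulsogen EL/NMP/dipropylene glycol monomethyl ether/X-77 formulation onto soil right after sowing (pre-emergence) or onto 8–9-day plants (post-emergence); greenhouse-grown. Damage scored 0 (none) to 10 (total) after 4 weeks pre- or 3 weeks post-emergence.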

The test system is the same in series [2]. In words: Example B2 herbicidal action, application pre-emergence, 96-cell seed trays (Table B2b). Format: in vivo. The settings on record: 1000 g/ha. Here is the method:
Monocotyledonous and dicotyledonous test plants were sown in sterilised standard soil in seed trays each having 96 cells. After one day (pre-emergence) or after 8 to 9 days cultivation (post-emergence) under controlled conditions in a climatic chamber (cultivation at 17/23° C.; 13 hours light; 50-60% humidity; after application at 19/24° C.), the plants were treated with an aqueous spray solution of 1000 mg/l of the active ingredient used (rate of application: […]; incl. 10% DMSO as solvent). The plants were grown on in the climatic chamber until the test was evaluated (10 total damage to plant, 0=no damage to plant) after 9 or 13 days.

The test system is the same in series [3]. In words: Example B1 herbicidal action, application post-emergence (Table B1a). The following applies: 250 g/ha, evaluated after 3 weeks, scale 0-10. Format: in vivo. Summed up:
as §1

By melting point is commonly meant the temperature, or range, at which the solid turns liquid.

On to `C#CCC(c1c(F)cccc1F)S(=O)(=O)C1=NOC(C)(C)C1` (stereo not shown) [Compound No. 1.02], for which, in series [1], the “herbicidal action (damage rating 0-10), Panicum” value (shortened to “herbicidal action … Panicum”) is listed as 6; the “herbicidal action (damage rating 0-10), Setaria” value (“herbicidal action … Setaria” below) stood at 3; the “herbicidal action (damage rating 0-10), Sida” value (from here on “herbicidal action … Sida”) turned out to be 0. In addition, in series [2], the “herbicidal action (damage rating 0-10), Agrostis” value worked out at 8; the “herbicidal action (damage rating 0-10), Digitaria” value (from here on “herbicidal action … Digitaria”) came out at 9; the “herbicidal action (damage rating 0-10), Poa” value worked out at 5; the “herbicidal action … Setaria” value is listed as 9. Besides, in series [3], the “herbicidal damage rating, Abutilon” value was found to be 0; the “herbicidal damage rating, Digitaria” value stood at 6; the “herbicidal damage rating, Panicum” value turned out to be 10; the “herbicidal damage rating, Setaria” value is on record as 7. Further, the “herbicidal damage rating, Sida” value in series [3] amounted to 5. Moreover, in series [3] (Amaranthus), the “herbicidal damage rating, Amaranthus” value is reported as 9.

Turning to `CC1(C)CC(S(=O)(=O)C(Cc2ccc(F)cc2)c2c(F)cccc2F)=NO1` (stereo not shown) [Compound No. 1.05, 3-[1-(2,6-difluoro-phenyl)-2-(4-fluoro-phenyl)-ethanesulfonyl]-5,5-dimethyl-4,5-dihydroisoxazole], the melting point was determined as 95 °C.

Take `COC(=O)C(Cl)(c1c(F)cccc1F)S(=O)(=O)C1=NOC(C)(C)C1` (stereo not shown) [Compound No. 1.14, chloro-(2,6-difluorophenyl)-(5,5-dimethyl-4,5-dihydroisoxazole-3-sulfonyl)-acetic acid methyl ester]: in series [1], the “herbicidal action (damage rating 0-10), Amaranthus” value (shortened to “herbicidal action … Amaranthus”) is reported as 8; the “herbicidal action … Digitaria” value was 9; the “herbicidal action … Panicum” value turned out to be 9; the “herbicidal action … Setaria” value is 9. For the same compound, the “herbicidal action … Sida” value in series [1] is listed as 6. In series [2], the “herbicidal action (damage rating 0-10), Agrostis” value stood at 10; the “herbicidal action … Digitaria” value was 9; the “herbicidal action (damage rating 0-10), Poa” value is 10; the “herbicidal action … Setaria” value turned out to be 10. Moreover, in series [3], the “herbicidal damage rating, Abutilon” value was determined as 4; the “herbicidal damage rating, Digitaria” value came to 3; the “herbicidal damage rating, Panicum” value worked out at 0; the “herbicidal damage rating, Setaria” value is 3. Moreover, the “herbicidal damage rating, Sida” value in series [3] is reported as 3.

`CC1(C)CC(S(=O)(=O)C(Cl)(CC=C(F)F)c2c(F)cccc2F)=NO1` (stereo not shown) [Compound No. 1.17, 3-[1-chloro-1-(2,6-difluoro-phenyl)-4,4-difluoro-but-3-ene-1-sulfonyl]-5,5-dimethyl-4,5-dihydroisoxazole]: the melting point was 113 °C.

The compound `CC1(C)CC(S(=O)(=O)C(C(=O)NC2CC2)c2c(F)cccc2F)=NO1` (stereo not shown) [Compound No. 1.35, N-cyclopropyl-2-(2,6-difluoro-phenyl)-2-(5,5-dimethyl-4,5-dihydroisoxazole-3-sulfonyl)-acetamide] gave a melting point of 150 °C.

`C=CC1CC1(c1c(F)cccc1F)S(=O)(=O)C1=NOC(C)(C)C1` (stereo not shown) [Compound No. 1.46, 3-[1-(2,6-difluoro-phenyl)-2-vinylcylopropane-sulfonyl]-5,5-dimethyl-4,5-dihydroisoxazole] yielded a melting point of 117 °C. Further, in series [1], the “herbicidal action … Amaranthus” value came to 3; the “herbicidal action … Digitaria” value was found to be 6; the “herbicidal action … Panicum” value worked out at 5; the “herbicidal action … Setaria” value is 3. Further, the “herbicidal action … Sida” value in series [1] is on record as 0.

For `COCC(c1c(F)cccc1F)S(=O)(=O)C1=NOC(C)(C)C1` (stereo not shown) [Compound No. 1.51, 3-[1-(2,6-difluoro-phenyl)-2-methoxy-ethanesulfonyl]-5,5-dimethyl-4,5-dihydroisoxazole], the melting point was 102 °C. In series [1], the “herbicidal action … Amaranthus” value amounted to 8; the “herbicidal action … Digitaria” value is 9; the “herbicidal action … Panicum” value is given as 9; the “herbicidal action … Setaria” value is 8. Moreover, the “herbicidal action … Sida” value in series [1] is 0.

As to `CC1(C)CC(S(=O)(=O)C(C)(F)c2ccccc2)=NO1` (stereo not shown) [Compound No. 1.138, 3-(1-fluoro-1-phenyl-ethanesulfonyl)-5,5-dimethyl-4,5-dihydroisoxazole], the melting point lay in the range of 91 to 93 °C.

Take `Cn1nc(C(F)(F)F)c(C(F)S(=O)(=O)C2=NOC(C)(C)C2)c1OC1COC1` (stereo not shown) [Compound No. 2.27, 3-{fluoro-[1-methyl-5-(oxetan-3-yloxy)-3-trifluoromethyl-1H-pyrazol-4-yl]-methanesulfonyl}-5,5-dimethyl-4,5-dihydroisoxazole]: the melting point is 105 to 107 °C.

On to `Cc1noc(C2CC2)c1C(Cl)(Cl)S(=O)(=O)C1=NOC(C)(C)C1` [Compound No. 3.06, 5-cyclopropyl-4-[dichloro-(5,5-dimethyl-4,5-dihydroisoxazole-3-sulfonyl)methyl]-3-methyl-isoxazole], for which the melting point is 72 °C.

Compound `Cc1onc(C2CC2)c1C(Cl)S(=O)(=O)C1=NOC(C)(C)C1` (stereo not shown) [Compound No. 3.07, 4-[chloro-(5,5-dimethyl-4,5-dihydroisoxazole-3-sulfonyl)methyl]-3-cyclopropyl-5-methyl-isoxazole] displayed a melting point of 159 °C. Moreover, in series [1], the “herbicidal action … Amaranthus” value is recorded as 4; the “herbicidal action … Digitaria” value is given as 9; the “herbicidal action … Setaria” value is recorded as 8; the “herbicidal action … Sida” value amounted to 2.

Compound `Cn1cc(C(F)(F)F)c(C(F)S(=O)(=O)C2=NOC(C)(C)C2)n1` (stereo not shown) [Compound No. 4.04, 3-[fluoro-(1-methyl-4-trifluoromethyl-1H-pyrazol-3-yl)-methanesulfonyl]-5,5-dimethyl-4,5-dihydroisoxazole] registered a melting point of 117 to 118 °C.

Take `Cn1cc(C(F)(F)F)c(C(F)(F)S(=O)(=O)C2=NOC(C)(C)C2)n1` [Compound No. 4.05, 3-[difluoro-(1-methyl-4-trifluoromethyl-1H-pyrazol-3-yl)-methanesulfonyl]-5,5-dimethyl-4,5-dihydro-isoxazole]: the melting point lay within 101 to 103 °C.

For the compound `COc1cc(C(Cl)(Cl)S(=O)(=O)C2=NOC(C)(C)C2)on1` [Compound No. 5.02, 5-[dichloro-(5,5-dimethyl-4,5-dihydroisoxazole-3-sulfonyl)-methyl]-3-methoxy-isoxazole], the melting point was 118 °C.

The compound `COc1cc(C(F)S(=O)(=O)C2=NOC(C)(C)C2)on1` (stereo not shown) [Compound No. 5.03, 5-[(5,5-dimethyl-4,5-dihydroisoxazole-3-sulfonyl)-fluoromethyl]-3-methoxy-isoxazole] gave a melting point of 99 °C. For the same compound, in series [1], the “herbicidal action … Amaranthus” value amounted to 10; the “herbicidal action … Setaria” value was determined as 9; the “herbicidal action … Sida” value was determined as 2.

Take `Cc1c(Br)noc1C(F)(F)S(=O)(=O)C1=NOC(C)(C)C1` [Compound No. 5.06, 3-bromo-5-[(5,5-dimethyl-4,5-dihydroisoxazole-3-sulfonyl)-difluoro-methyl]-4-methyl-isoxazole]: the melting point lay within 70 to 75 °C.
